Test results from publication PMC7277541, “Antimicrobial and Antifungal Activities of Terpene-Derived Palladium Complexes” (Antibiotics, 2020).
In brackets after ≈: the same amount, converted by molar mass.

Test: Cytotoxicity assay (resazurin)
Format: cell-based, human
Conditions: human, HEK293 cells (ATCC CRL-1573), HEK293, 20 h incubation, read-out: CC50 (concentration of 50% cytotoxicity)
Protocol: Screening against bacteria and yeasts for antimicrobial activity and toxicity against mammalian cells was performed in duplicate (n = 2). […] HEK293 cells were counted manually in a Neubauer hemocytometer and added to compound-containing plates (384-well plates, tissue culture treated (TC); Corning CLS3712) giving a final density of 5000 cells/well in a total volume of 50 μL, using Dulbecco's Modified Eagle Medium (DMEM; Life Technologies 11995-073) with 10% Fetal Bovine Serum (FBS; GE SH30084.03). […] Sigma R7017) and after further incubation for 3 h at 37 °C in 5% CO2. Media only was used as negative control and cells without inhibitors as positive growth control. CC50 (concentration at 50% cytotoxicity) values were calculated by curve fitting the inhibition values vs. log(concentration) using a sigmoidal dose-response function, with variable fitting values for bottom, top and slope. Tamoxifen (Sigma Aldrich, Australia T5648) was used as positive inhibitor control on each plate. Selectivity indices (SI) were calculated by dividing the CC50 value (μg/mL) by the MIC value (μg/mL) for a given bacterial or fungal strain.

CC/C(=C(\c1ccccc1)c1ccc(OCCN(C)C)cc1)c1ccccc1 [tamoxifen, Tamoxifen, reference compound]
CC50 at 20 h: 9 µg/mL (≈ 24.2 µM)
